pIC50: −log10 of the molar value. Where two headings read alike, the source gives them in different places.
Experiments:
[1] = biological target: T1, androgen receptor (AR) splicing variant AR-v7 (Homo sapiens, UniProt P10275); assay: Degradation activity on androgen receptor splicing variant AR-v7 in 22RV1 cells (ELISA); format: cell-based; conditions: AR-v7 degradation in 22RV1 cells, 48 h, class symbols
T1 construct: The degradation activity of compounds on AR-v7 in 22RV1 cells; host or cells: 22RV1 cells
T1 sequence (P10275 1-644 isoform P10275-3): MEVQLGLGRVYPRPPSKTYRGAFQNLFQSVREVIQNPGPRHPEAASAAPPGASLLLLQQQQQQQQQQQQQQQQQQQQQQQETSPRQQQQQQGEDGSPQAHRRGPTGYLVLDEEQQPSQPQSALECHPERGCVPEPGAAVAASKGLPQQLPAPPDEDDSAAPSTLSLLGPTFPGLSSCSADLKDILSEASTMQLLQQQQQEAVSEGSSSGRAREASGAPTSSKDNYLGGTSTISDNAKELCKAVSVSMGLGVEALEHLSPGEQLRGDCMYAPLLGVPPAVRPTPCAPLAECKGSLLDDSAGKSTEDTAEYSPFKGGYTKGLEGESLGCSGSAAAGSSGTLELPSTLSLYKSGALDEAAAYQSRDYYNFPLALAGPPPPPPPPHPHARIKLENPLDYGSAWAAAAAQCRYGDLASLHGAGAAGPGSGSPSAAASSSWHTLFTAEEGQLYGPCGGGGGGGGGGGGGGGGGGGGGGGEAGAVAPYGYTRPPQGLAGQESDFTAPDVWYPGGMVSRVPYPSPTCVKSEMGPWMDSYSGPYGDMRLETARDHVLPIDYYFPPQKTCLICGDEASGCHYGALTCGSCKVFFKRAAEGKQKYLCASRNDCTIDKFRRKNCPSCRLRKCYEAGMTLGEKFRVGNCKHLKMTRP

22RV1 cells = conditions: for IC50: Homo sapiens, 22Rv1, 144 h
[2] = read-out: 22RV1 IC50 (nM), 22RV1 cells, 6 days culture, CCK-8, OD 450 nm

SMILES	DC50 [1]	IC50 (22RV1 cells; read-out: 22RV1 IC50 (nM))	IC50 (22RV1 cells; [2])	pIC50 (22RV1 cells; read-out: 22RV1 IC50, 22RV1 cells, 6 days culture, CCK-8, OD 450 nm)
CC(C)(c1ccc(OCCCCCCCCOCCCCNc2ccc3c(c2)C(=O)N(C2CCC(=O)NC2=O)C3=O)cc1)c1ccc(OCc2ccnc(N3CC4(COC4)C3)n2)cc1 (stereo not shown) [Example 61, 5-((4-((8-(4-(2-(4-((2-(2-oxa-6-azaspiro[3.3]heptan-6-yl)pyrimidin-4-yl)methoxy)phenyl)propan-2-yl)phenoxy)octyl)oxy)butyl)amino)-2-(2,6-dioxopiperidin-3-yl)isoindolin-1,3-dione]	1000 to 5000 nM	4000 nM	–	–
CC(C)(c1ccc(OCCCCCCCOCCCOCCCNc2ccc3c(c2)C(=O)N(C2CCC(=O)NC2=O)C3=O)cc1)c1ccc(OCc2ccnc(N3CC4(COC4)C3)n2)cc1 (stereo not shown) [Example 62, 5-((3-(3-((7-(4-(2-(4-((2-(2-oxa-6-azaspiro[3.3]heptan-6-yl)pyrimidin-4-yl)methoxy)phenyl)propan-2-yl)phenoxy)heptyl)oxy)propoxy)propyl)amino)-2-(2,6-dioxopiperidin-3-yl)isoindolin-1,3-dione]	1000 to 5000 nM	–	1500 nM	–
CSc1nccc(COc2ccc(C(C)(C)c3ccc(OCCCNc4ccc5c(c4)C(=O)N(C4CCC(=O)NC4=O)C5=O)cc3)cc2)n1 (stereo not shown) [Example 66]	11 to 100 nM	–	70 nM	–
COc1nccc(COc2ccc(C(C)(C)c3ccc(OCCCNc4ccc5c(c4)C(=O)N(C4CCC(=O)NC4=O)C5=O)cc3)cc2)n1 (stereo not shown) [Example 68, 2-(2,6-dioxopiperidin-3-yl)-5-((3-(4-(2-(4-((2-methoxypyrimidin-4-yl)methoxy)phenyl)propan-2-yl)phenoxy)propyl)amino)isoindolin-1,3-dione]	11 to 100 nM	–	30 nM	–
CCOc1nccc(COc2ccc(C(C)(C)c3ccc(OCCCNc4ccc5c(c4)C(=O)N(C4CCC(=O)NC4=O)C5=O)cc3)cc2)n1 (stereo not shown) [Example 69, 2-(2,6-dioxopiperidin-3-yl)-5-((3-(4-(2-(4-((2-ethoxypyrimidin-4-yl)methoxy)phenyl)propan-2-yl)phenoxy)propyl)amino)isoindolin-1,3-dione]	11 to 100 nM	–	50 nM	–
CC(C)(c1ccc(OCCCNc2ccc3c(c2)C(=O)N(C2CCC(=O)NC2=O)C3=O)cc1)c1ccc(OCc2ccnc(OC3CC3)n2)cc1 (stereo not shown) [Example 70, 5-((3-(4-(2-(4-((2-cyclopropyloxypyrimidin-4-yl)methoxy)phenyl)propan-2-yl)phenoxy)propyl)amino)-2-(2,6-dioxopiperidin-3-yl)isoindolin-1,3-dione]	11 to 100 nM	–	30 nM	–
CC(C)(c1ccc(OCCCNc2ccc3c(c2)C(=O)N(C2CCC(=O)NC2=O)C3=O)cc1)c1ccc(OCc2ccnc(N3CCOCC3)n2)cc1 (stereo not shown) [Example 71, 2-(2,6-dioxopiperidin-3-yl)-5-((3-(4-(2-(4-((2-morpholinepyrimidin-4-yl)methoxy)phenyl)propan-2-yl)phenoxy)propyl)amino)isoindolin-1,3-dione]	11 to 100 nM	–	35 nM	–
CN1CCN(c2nccc(COc3ccc(C(C)(C)c4ccc(OCCCNc5ccc6c(c5)C(=O)N(C5CCC(=O)NC5=O)C6=O)cc4)cc3)n2)CC1 (stereo not shown) [Example 72]	11 to 100 nM	–	37 nM	–
CC(C)(c1ccc(OCCCNc2ccc3c(c2)C(=O)N(C2CCC(=O)NC2=O)C3=O)cc1)c1ccc(OCc2ccnc(N3CC4(COC4)C3)n2)cc1 (stereo not shown) [Example 73, 5-((3-(4-(2-(4-((2-(2-oxa-6-azaspiro[3.3]heptan-6-yl)pyrimidin-4-yl)methoxy)phenyl)propan-2-yl)phenoxy)propyl)amino)-2-(2,6-dioxopiperidin-3-yl)isoindolin-1,3-dione]	11 to 100 nM	–	25 nM	–
CC(C)(c1ccc(OCCCNc2ccc3c(c2)C(=O)N(C2CCC(=O)NC2=O)C3=O)cc1)c1ccc(OCc2ccnc(N)n2)cc1 (stereo not shown) [Example 74, 5-((3-(4-(2-(4-((2-aminopyrimidin-4-yl)methoxy)phenyl)propan-2-yl)phenoxy)propyl)amino)-2-(2,6-dioxopiperidin-3-yl)isoindolin-1,3-dione]	11 to 100 nM	–	31 nM	–
CC(C)(c1ccc(OCCCNc2ccc3c(c2)C(=O)N(C2CCC(=O)NC2=O)C3=O)cc1)c1ccc(OCc2ccnc(N3CCC4(CC3)COC4)n2)cc1 (stereo not shown) [Example 77, 5-((3-(4-(2-(4-((2-(2-oxa-7-azaspiro[3.5]nonan-7-yl)pyrimidin-4-yl)methoxy)phenyl)propan-2-yl)phenoxy)propyl)amino)-2-(2,6-dioxopiperidin-3-yl)isoindolin-1,3-dione]	11 to 100 nM	–	44 nM	–
CC(C)(c1ccc(OCc2ccnc(N3CC4(CCOC4)C3)n2)cc1)c1ccc(O[C@H]2C[C@@H](Nc3ccc4c(c3)C(=O)N(C3CCC(=O)NC3=O)C4=O)C2)cc1 (stereo partly shown) [Example 88, 5-(((1s,3s)-3-(4-(2-(4-((2-(6-oxa-2-azaspiro[3.4]octan-2-yl)pyrimidin-4-yl)methoxy)phenyl)propan-2-yl)phenoxy)cyclobutyl)amino)-2-(2,6-dioxopiperidin-3-yl)isoindolin-1,3-dione]	< 10 nM	–	15 nM	–
CC(C)(c1ccc(OCc2ccnc(N3CC4(CCOCC4)C3)n2)cc1)c1ccc(O[C@H]2C[C@@H](Nc3ccc4c(c3)C(=O)N(C3CCC(=O)NC3=O)C4=O)C2)cc1 (stereo partly shown) [Example 89, 5-(((1s,3s)-3-(4-(2-(4-((2-(7-oxa-2-azaspiro[3.5]nonan-2-yl)pyrimidin-4-yl)methoxy)phenyl)propan-2-yl)phenoxy)cyclobutyl)amino)-2-(2,6-dioxopiperidin-3-yl)isoindolin-1,3-dione]	< 10 nM	–	16 nM	–
CC(C)(c1ccc(OCc2ccnc(N3CC4(COC4)C3)n2)cc1)c1ccc(O[C@H]2C[C@@H](Nc3ccc4c(c3)CN(C3CCC(=O)NC3=O)C4=O)C2)cc1 (stereo partly shown) [Example 91, 3-(5-(((1s,3s)-3-(4-(2-(4-((2-(2-oxa-6-azaspiro[3.3]heptane-6-yl)pyrimidin-4-yl)methoxy)phenyl)propan-2-yl)phenoxy)cyclobutyl)amino)-1-oxoisoindolin-2-yl)piperidin-2,6-dione]	< 10 nM	–	2 nM	–
Cc1nnc(-c2ncc(F)cc2Oc2ccc(C(C)(C)c3ccc(O[C@H]4C[C@H](Nc5ccc6c(c5)C(=O)N(C5CCC(=O)NC5=O)C6=O)C4)cc3)cc2)o1 (stereo partly shown) [Example 95, 2-(2,6-dioxopiperidin-3-yl)-5-(((1r,3r)-3-(4-(2-(4-((5-fluoro-2-(5-methyl-1,3,4-oxadiazol-2-yl)pyridin-3-yl)oxy)phenyl)propan-2-yl)phenoxy)cyclobutyl)amino)isoindolin-1,3-dione]	< 10 nM	–	6 nM	–
Cc1nnc(-c2cnc(Oc3ccc(C(C)(C)c4ccc(O[C@H]5C[C@H](Nc6ccc7c(c6)C(=O)N(C6CCC(=O)NC6=O)C7=O)C5)cc4)cc3)o2)o1 (stereo partly shown) [Example 96, 2-(2,6-dioxopiperidin-3-yl)-5-(((1r,3r)-3-(4-(2-(4-((5-(5-methyl-1,3,4-oxadiazol-2-yl)oxazol-2-yl)oxy)phenyl)propan-2-yl)phenoxy)cyclobutyl)amino) isoindolin-1,3-dione]	< 10 nM	–	25 nM	–
Cc1nc(-c2ncc(Oc3ccc(C(C)(C)c4ccc(OC5CC(Nc6ccc7c(c6)CN([C@H]6CCC(=O)NC6=O)C7=O)C5)cc4)cc3)cn2)no1 (stereo partly shown) [Example 101]	< 10 nM	–	–	8.62
CC(O)c1ccc(Oc2ccc(C3(c4ccc(O[C@H]5C[C@H](Nc6ccc7c(c6)C(=O)N(C6CCC(=O)NC6=O)C7=O)C5)cc4)CCCC3)cc2)nn1 (stereo partly shown) [Example 103]	< 10 nM	–	2 nM	–
CC(=O)c1ccc(Oc2ccc(C3(c4ccc(O[C@H]5C[C@H](Nc6ccc7c(c6)C(=O)N(C6CCC(=O)NC6=O)C7=O)C5)cc4)CCCC3)cc2)nn1 (stereo partly shown) [Example 104]	< 10 nM	–	1 nM	–
CC(O)c1ccc(Oc2ccc(C3(c4ccc(O[C@H]5C[C@H](Nc6ccc7c(c6)C(=O)N(C6CCC(=O)NC6=O)C7=O)C5)cc4)CCOCC3)cc2)nn1 (stereo partly shown) [Example 105]	< 10 nM	–	0.2 nM	–
CC(=O)c1ccc(Oc2ccc(C3(c4ccc(O[C@H]5C[C@H](Nc6ccc7c(c6)C(=O)N(C6CCC(=O)NC6=O)C7=O)C5)cc4)CCOCC3)cc2)nn1 (stereo partly shown) [Example 106]	< 10 nM	–	0.3 nM	–
CC(=O)c1nccc(COc2ccc(C(C)(C)c3ccc(OCCNc4ccc5c(c4)C(=O)N(C4CCC(=O)NC4=O)C5=O)cc3)cc2)n1 (stereo not shown) [Example 109, 5-((2-(4-(2-(4-((2-acetylpyrimidin-4-yl)methoxy)phenyl)propan-2-yl)phenoxy)ethyl)amino)-2-(2,6-dioxopiperidin-3-yl) isoindolin-1,3-dione]	< 10 nM	–	9 nM	–
CC(C)(c1ccc(OCc2ccnc(C(=O)C3CC3)n2)cc1)c1ccc(O[C@H]2C[C@H](Nc3ccc4c(c3)C(=O)N(C3CCC(=O)NC3=O)C4=O)C2)cc1 (stereo partly drawn) [Example 115, 5-(((trans)-3-(4-(2-(4-((2-(cyclopropanecarbonyl)pyrimidin-4-yl)methoxy)phenyl)propan-2-yl)phenoxy)cyclobutyl)amino)-2-(2,6-dioxopiperidin-3-yl)isoindolin-1,3-dione]	< 10 nM	–	5 nM	–

From US20250051347A1, “BIFUNCTIONAL CHIMERIC HETEROCYCLIC COMPOUND AND USE THEREOF AS ANDROGEN RECEPTOR DEGRADER” (Hinova Pharmaceuticals, Inc., priority 2021, published 2025)
